{"source": "patent US11970499B1", "about": "“Pyrazolo[1,5-c]pyrimidine compounds as CK2 inhibitors” (KING FAISAL UNIVERSITY, priority 2023, dated 2024)", "key": {"[1]": {"test_system": "PC3 (prostate)", "test": "MTT in vitro cytotoxic activity assay, PC3", "assay_type": "cell-based", "conditions": "Homo sapiens, PC-3; PC3 cells, exposed for 96 hours; read-out: Cytotoxicity activity IC50, PC3 (prostate)", "method": "(§1) Compounds 1-20 were screened for their in vitro cytotoxic activity utilizing a 3-(4,5-dimethyl-thiazol-2-yl)-2,5-diphenyltetrazolium bromide (MTT) assay against selected cancer human cell lines consisting of PC3 (prostate), HCT 116 (colon), A375 (melanoma), H1299 (lung), MIAPaCa-2 (pancreas), HL60 (leukemia), MCF7 (breast), MDA-MB-231 (breast) (T. Mosmann, J. Immunol. Meth., 1983, 65, 55-63). The cells were cultured at 37° C. in RMPI1640 medium supplemented with 10% fetal bovine serum, 50 IU/mL penicillin, and 50 μg/mL streptomycin in a 5% CO2 incubator. All cells were sub-cultured 3 times/week by trypsinisation. Viable cells were seeded and allowed to adhere for 12 h before a test drug was added in 96-well plates at an initial density of 1.0×10^5 cells/mL. Tumor cell lines were separately exposed to various concentrations of the tested compounds followed by incubation at a temperature of 37° C. during 96 hours inside a medium of fresh RMPI 1640. Cells were subsequently incubated at 37° C. using MTT at 0.5 mg/mL during 4 hours. After removal of supernatant, formazan crystals were dissolved in isopropanol and the optical density was measured at 570 nm. CX-4945 was used as a positive control."}, "[2]": {"test_system": "HCT116 (colon)", "test": "MTT in vitro cytotoxic activity assay, HCT116", "assay_type": "cell-based", "conditions": "Homo sapiens, HCT-116; HCT116 cells, exposed for 96 hours; read-out: Cytotoxicity activity IC50, HCT116 (colon)", "method": "as §1"}, "[3]": {"test_system": "A375 (melanoma)", "test": "MTT in vitro cytotoxic activity assay, A375", "assay_type": "cell-based", "conditions": "Homo sapiens, A-375; A375 cells, exposed for 96 hours; read-out: Cytotoxicity activity IC50, A375 (melanoma)", "method": "as §1"}, "[4]": {"test_system": "H1299 (lung)", "test": "MTT in vitro cytotoxic activity assay, H1299", "assay_type": "cell-based", "conditions": "Homo sapiens, NCI-H1299; H1299 cells, exposed for 96 hours; read-out: Cytotoxicity activity IC50, H1299 (lung)", "method": "as §1"}, "[5]": {"test_system": "MIAPaCa-2 (pancreas)", "test": "MTT in vitro cytotoxic activity assay, MIAPaCa-2", "assay_type": "cell-based", "conditions": "Homo sapiens, MIA PaCa-2; MIAPaCa-2 cells, exposed for 96 hours; read-out: Cytotoxicity activity IC50, MIAPaCa-2 (pancreas)", "method": "as §1"}, "[6]": {"test_system": "HL60 (leukemia)", "test": "MTT in vitro cytotoxic activity assay, HL60", "assay_type": "cell-based", "conditions": "Homo sapiens, HL-60; HL60 cells, exposed for 96 hours; read-out: Cytotoxicity activity IC50, HL60 (leukemia)", "method": "as §1"}, "[7]": {"test_system": "MCF7 (breast)", "test": "MTT in vitro cytotoxic activity assay, MCF7", "assay_type": "cell-based", "conditions": "Homo sapiens; MCF7 cells, exposed for 96 hours; read-out: Cytotoxicity activity IC50, MCF7 (breast)", "method": "as §1"}, "[8]": {"test_system": "MDA-MB-231 (breast)", "test": "MTT in vitro cytotoxic activity assay, MDA-MB-231", "assay_type": "cell-based", "conditions": "Homo sapiens; MDA-MB-231 cells, exposed for 96 hours; read-out: Cytotoxicity activity IC50, MDA-MB-231 (breast)", "method": "as §1"}, "[9]": {"target": "T1, recombinant human CK2 (Homo sapiens, UniProt P68400)", "T1 construct": "purchased Millipore", "T1 sequence (P68400 whole entry)": "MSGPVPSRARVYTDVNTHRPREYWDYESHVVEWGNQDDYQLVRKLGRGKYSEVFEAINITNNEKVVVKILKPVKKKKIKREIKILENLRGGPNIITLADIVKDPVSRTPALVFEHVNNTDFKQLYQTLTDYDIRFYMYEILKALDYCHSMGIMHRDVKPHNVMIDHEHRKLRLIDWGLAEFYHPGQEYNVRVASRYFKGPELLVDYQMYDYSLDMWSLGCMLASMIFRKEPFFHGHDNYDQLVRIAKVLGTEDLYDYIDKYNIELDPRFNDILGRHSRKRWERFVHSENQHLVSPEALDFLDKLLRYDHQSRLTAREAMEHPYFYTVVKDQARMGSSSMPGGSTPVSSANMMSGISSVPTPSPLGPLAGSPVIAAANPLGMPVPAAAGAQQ", "T1 sequence (P67870 whole entry partner)": "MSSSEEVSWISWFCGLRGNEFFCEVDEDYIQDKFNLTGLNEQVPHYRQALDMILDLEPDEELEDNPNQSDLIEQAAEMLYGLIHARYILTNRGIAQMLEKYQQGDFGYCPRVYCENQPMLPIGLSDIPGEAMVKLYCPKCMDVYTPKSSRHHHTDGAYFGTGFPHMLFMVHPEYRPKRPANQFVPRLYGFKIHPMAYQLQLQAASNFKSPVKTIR", "test": "CK2 Kinase Assay (33P-ATP, substrate peptide RRRDDDSDDD)", "assay_type": "biochemical", "conditions": "recombinant human CK2 holoenzyme, final ATP 15 μM, 10 min at 30° C.; read-out: protein kinase CK2 activity IC50", "method": "CK2 Kinase Assay was conducted using the protocol as described in Pierre F. et al; J. Med. Chem. 2011, 54, 635-654. The tested compounds in aqueous solution were added at a volume of 10 μL to a reaction mixture comprising 10 μL of assay dilution buffer (ADB; 20 mM MOPS, pH 7.2, 25 mM β-glycerol phosphate, 5 mM EGTA, 1 mM sodium orthovanadate, and 1 mM dithiothreitol), 10 μL of substrate peptide (RRRDDDSDDD, dissolved in ADB at a concentration of 1 mM), 10 μL of recombinant human CK2 (RRββ-holoenzyme, 25 ng dissolved in ADB; Millipore). Reactions were initiated by the addition of 10 μL of ATP solution (90% 75 mMMgCl2, 75 sM ATP (final ATP concentration:15 μM) dissolved in ADB; 10% [γ-^33P] ATP (stock 1 mCi/100 μL; 3000 Ci/mmol (Perkin-Elmer) and maintained for 10 min at 30° C. The reactions were quenched with 100 μL of 0.75% phosphoric acid and then transferred to and filtered through a phosphor cellulose filter plate (Millipore). After washing each well five times with 0.75% phosphoric acid, the plate was dried under vacuum for 5 min and, following the addition of 15 μL of scintillation fluid to each well, the residual radioactivity was measured using a Wallac luminescence counter. The IC50 values were derived from eight concentrations of test inhibitors."}}, "note": "pIC50: −log10 of the molar value.", "data": [{"smiles": "Clc1cccc(Nc2c(-c3ccncn3)nn3cnccc23)c1", "note": "[Compound 13, N-(3-chlorophenyl)-2-(pyrimidin-4-yl)pyrazolo[1,5-c]pyrimidin-3-amine]", "values": [{"measurement": "pIC50", "setting": "[1]", "value": 5.92}, {"measurement": "pIC50", "setting": "[2]", "value": 5.68}, {"measurement": "pIC50", "setting": "[3]", "value": 5.47}, {"measurement": "pIC50", "setting": "[4]", "value": 5.80}, {"measurement": "pIC50", "setting": "[5]", "value": 5.82}, {"measurement": "pIC50", "setting": "[6]", "value": 5.41}, {"measurement": "pIC50", "setting": "[7]", "value": 5.26}, {"measurement": "pIC50", "setting": "[8]", "value": 5.34}, {"measurement": "pIC50", "setting": "[9]", "value": 6.96}]}]}
